The values below come from paper PMC6709497, “Identification of Novel Trypanosoma cruzi Proteasome Inhibitors Using a Luminescence-Based High-Throughput Screening Assay” (Antimicrobial Agents and Chemotherapy, 2019).

Read-outs that look alike come from different tables or passages of the source. Starred links: 1 amine or outer side, 2 acyl side, 3 side chain; linkers in the order of their positions; H or OH if unused. Non-standard residues stand in square brackets, D forms with d. Residues, ends and D or L forms follow the SMILES beside them. ξ: configuration not given here. *: point of attachment. aminoluciferin = aminoluciferin attached at the C-terminus (luminogenic reporter), O=C(O)[C@H]1CSC(c2nc3ccc(N*)cc3s2)=N1; Suc = O=C(CCC(=O)[*:2])[*:1]; Nva = CCC[C@H](N)C(=O)O; Cbz = O=C(OCc1ccccc1)*; ξL = CC(C)CC(N)C(=O)O

Data set [1] relates to T. cruzi strain Silvio X10/7 epimastigotes. Put plainly: Cellular T. cruzi epimastigote viability assay. To be noted: 96 h; for EC50: Trypanosoma cruzi, read-out: Cellular pEC50 ± SD (converted). The format is cell-based, Trypanosoma cruzi. The procedure:
For the cell viability readout, BacTiter-Glo microbial cell viability reagent (Promega; catalogue no. G8230) was added to each well (25 μl) and incubated at room temperature for 5 min. The plates were then sealed with clear film, and the luminescence was read using a Victor 3 (PerkinElmer, USA) or Pherastar FS (BMG Labtech, Germany) plate reader with a 0.5-s per well reading time. Data for epoxomicin were obtained from three independent replicates (n = 3), and data for all the remaining compounds were acquired from four independent replicates (n = 4). RLU data were normalized to percent inhibition values relative to 100% effect (Nifurtimox) and 0% effect (DMSO; 1% [vol/vol] final assay concentration) control populations. Normalized data for each independent replicate were fitted separately to a four-parameter logistic regression model, and pEC50 {i.e., −log(EC50[M])} values were calculated using IBDS ActivityBase 8.1.2.12 software, after which a mean pEC50 value for each compound was calculated.

Data set [2] has as its target T. cruzi proteasome trypsin-like activity (Trypanosoma cruzi, UniProt V5BCU3+V5BGL9). Nature of the data set: Cell-free T. cruzi proteasome trypsin-like activity luminescence assay. The class given is biochemical. To be noted: n = 4; 15 μM Z-Leu-Arg-Arg-aminoluciferin. The text has this: The commercially available Proteasome-Glo 3-substrate system and chymotrypsin-like assay kits (Promega; catalogue no. G8531 and G8622, respectively) were assembled according to the manufacturers’ protocols ([29]) unless otherwise stated. Briefly, Proteasome-Glo buffer was used to formulate the luciferin detection reagent (containing a recombinant thermostable luciferase enzyme) to approximately 0.35% (wt/vol) final assay concentration. The luciferin detection reagent was then mixed with Proteasome-Glo trypsin-, caspase-, or chymotrypsin-like reagents (comprising 15 μM Z-Leu-Arg-Arg-aminoluciferin (Z is benzyloxycarbonyl), 20 μM Z-Nle-Pro-Nle-Asp-aminoluciferin, or 20 μM suc-Leu-Leu-Val-Tyr-aminoluciferin substrate, respectively, at final assay concentrations), and the mixture was allowed to incubate at room temperature for 60 min prior to use. T. cruzi proteasome buffer comprised 50 mM Tris-HCl, pH 7.5, 10 mM sucrose, 5 mM MgCl2, 1 mM dithiothreitol, 2 mM ATP, 150 mM NaCl, 1 mM EDTA, and 0.05 mg/ml bovine serum albumin (BSA). […] Biochemical cell-free assays were performed in an 8-μl final assay volume using 384-well white low-volume plates (Greiner; catalogue no. 784904), and cellular assays were performed in a 50-μl final assay volume using 384-well standard volume plates (Greiner; catalogue no. 781098). Luminescence was read using an EnVision 2102 Multilabel Reader (PerkinElmer, USA) with 0.2-s per well reading time, unless otherwise specified. DMSO or compound was added to the assay plates using Echo acoustic dispensers (Labcyte, USA). […] Z factor values were calculated using the following equation: Z factor = 1 − ({3 × [1.483 × (RLU MAD Max)]} + {3 × [1.483 × (RLU MAD Min)]})/(median RLU Max − median RLU Min), where MAD is the median absolute deviation, Max is the maximum-effect control samples, and Min is the minimum-effect control samples.
Next, 4 μl of luciferin detection and Proteasome-Glo chymotrypsin-, caspase-, or trypsin-like reagent mixtures were added to initiate the biochemical reaction. The reaction was allowed to proceed at room temperature for 60 min, after which the luminescence was read. […] Relative luminescence unit (RLU) data were normalized to percent inhibition values relative to 100% effect (DMSO, 1% [vol/vol] final assay concentration in the absence of T. cruzi proteasome enzyme) and 0% effect (DMSO, 1% [vol/vol] final assay concentration with T. cruzi proteasome enzyme) control populations using Microsoft Excel 2013 software. IC50 values were calculated by fitting the concentration-response data for each independent replicate separately to either a four-parameter logistic model or a seven-parameter logistic model with the bottom curve plateau parameter constrained to zero, as shown below. […]

Data set [3] deals with T. cruzi proteasome caspase-like activity (Trypanosoma cruzi, UniProt V5BHX1). Put plainly: Cell-free T. cruzi proteasome caspase-like activity luminescence assay. The settings on record: n = 4; 20 μM Z-Nle-Pro-Nle-Asp-aminoluciferin. The format is biochemical. The text has this: (§1) The commercially available Proteasome-Glo 3-substrate system and chymotrypsin-like assay kits (Promega; catalogue no. G8531 and G8622, respectively) were assembled according to the manufacturers’ protocols ([29]) unless otherwise stated. Briefly, Proteasome-Glo buffer was used to formulate the luciferin detection reagent (containing a recombinant thermostable luciferase enzyme) to approximately 0.35% (wt/vol) final assay concentration. The luciferin detection reagent was then mixed with Proteasome-Glo trypsin-, caspase-, or chymotrypsin-like reagents (comprising 15 μM Z-Leu-Arg-Arg-aminoluciferin (Z is benzyloxycarbonyl), 20 μM Z-Nle-Pro-Nle-Asp-aminoluciferin, or 20 μM suc-Leu-Leu-Val-Tyr-aminoluciferin substrate, respectively, at final assay concentrations), and the mixture was allowed to incubate at room temperature for 60 min prior to use. T. cruzi proteasome buffer comprised 50 mM Tris-HCl, pH 7.5, 10 mM sucrose, 5 mM MgCl2, 1 mM dithiothreitol, 2 mM ATP, 150 mM NaCl, 1 mM EDTA, and 0.05 mg/ml bovine serum albumin (BSA). T. cruzi strain Silvio X10/7 epimastigotes were maintained in vitro at 28°C in RTH-fetal calf serum (FCS) culture medium (RPMI 1640 supplemented with 0.4% Trypticase peptone, 0.017 M HEPES, 25 μM hemin, 10% heat-inactivated FCS). Biochemical cell-free assays were performed in an 8-μl final assay volume using 384-well white low-volume plates (Greiner; catalogue no. 784904), and cellular assays were performed in a 50-μl final assay volume using 384-well standard volume plates (Greiner; catalogue no. 781098). Luminescence was read using an EnVision 2102 Multilabel Reader (PerkinElmer, USA) with 0.2-s per well reading time, unless otherwise specified. DMSO or compound was added to the assay plates using Echo acoustic dispensers (Labcyte, USA). Reagent addition for high-throughput screening assays was performed using an Xrd-384 liquid dispenser (FluidX, United Kingdom) and a BioFill Solo/Xrd-384 8-channel resin nozzle (0.5- to 200-μl) tubing cartridge (FluidX; catalogue no. 34-1003). Data analysis was performed using SigmaPlot 12.5 software unless otherwise stated. Z factor values were calculated using the following equation: Z factor = 1 − ({3 × [1.483 × (RLU MAD Max)]} + {3 × [1.483 × (RLU MAD Min)]})/(median RLU Max − median RLU Min), where MAD is the median absolute deviation, Max is the maximum-effect control samples, and Min is the minimum-effect control samples.
T. cruzi proteasome caspase-like activity, sequence (V5BHX1 entry or part of it): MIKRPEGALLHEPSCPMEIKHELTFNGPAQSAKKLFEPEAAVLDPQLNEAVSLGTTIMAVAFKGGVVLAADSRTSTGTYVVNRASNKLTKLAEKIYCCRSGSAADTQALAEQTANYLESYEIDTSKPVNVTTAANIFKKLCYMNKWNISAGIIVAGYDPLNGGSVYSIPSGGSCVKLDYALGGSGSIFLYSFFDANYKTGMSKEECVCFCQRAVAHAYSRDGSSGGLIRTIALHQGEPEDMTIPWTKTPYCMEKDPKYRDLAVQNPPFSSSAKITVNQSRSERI
(§2) Next, 4 μl of luciferin detection and Proteasome-Glo chymotrypsin-, caspase-, or trypsin-like reagent mixtures were added to initiate the biochemical reaction. The reaction was allowed to proceed at room temperature for 60 min, after which the luminescence was read. Data were acquired from 4 independent replicates (n = 4). Relative luminescence unit (RLU) data were normalized to percent inhibition values relative to 100% effect (DMSO, 1% [vol/vol] final assay concentration in the absence of T. cruzi proteasome enzyme) and 0% effect (DMSO, 1% [vol/vol] final assay concentration with T. cruzi proteasome enzyme) control populations using Microsoft Excel 2013 software. IC50 values were calculated by fitting the concentration-response data for each independent replicate separately to either a four-parameter logistic model or a seven-parameter logistic model with the bottom curve plateau parameter constrained to zero, as shown below.
The four-parameter logistic model is as follows: y=Min+Max−Min/1+(x/IC50)^−Hillslope […]

Data set [4] deals with T. cruzi proteasome chymotrypsin-like activity (Trypanosoma cruzi, UniProt V5BU39). Nature of the data set: Cell-free T. cruzi proteasome chymotrypsin-like activity luminescence assay (commercial inhibitors). The format is biochemical.
T. cruzi proteasome chymotrypsin-like activity, sequence (V5BU39 entry or part of it): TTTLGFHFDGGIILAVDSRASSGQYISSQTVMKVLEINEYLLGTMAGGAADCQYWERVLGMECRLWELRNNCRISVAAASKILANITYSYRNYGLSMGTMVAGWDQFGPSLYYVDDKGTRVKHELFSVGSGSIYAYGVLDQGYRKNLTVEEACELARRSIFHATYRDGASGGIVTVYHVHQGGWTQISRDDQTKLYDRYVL
T. cruzi proteasome chymotrypsin-like activity, sequence (A0A2V2VW62 entry or part of it, further chain): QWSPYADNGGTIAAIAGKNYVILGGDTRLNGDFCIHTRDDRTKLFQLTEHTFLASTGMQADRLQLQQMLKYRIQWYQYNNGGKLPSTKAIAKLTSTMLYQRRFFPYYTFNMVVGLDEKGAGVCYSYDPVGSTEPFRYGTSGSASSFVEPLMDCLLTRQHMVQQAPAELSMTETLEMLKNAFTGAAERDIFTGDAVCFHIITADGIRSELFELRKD
T. cruzi proteasome chymotrypsin-like activity, sequence (V5C017 entry or part of it, further chain): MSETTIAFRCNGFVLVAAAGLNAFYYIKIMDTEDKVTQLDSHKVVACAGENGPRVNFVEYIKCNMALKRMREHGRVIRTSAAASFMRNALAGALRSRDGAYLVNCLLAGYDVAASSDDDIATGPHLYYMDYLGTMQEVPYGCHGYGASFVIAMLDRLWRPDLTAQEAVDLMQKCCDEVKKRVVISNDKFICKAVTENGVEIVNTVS
From the text: as §1, with “T. cruzi strain Silvio X10/7 epimastigotes were maintained in vitro at 28°C in RTH-fetal calf serum (FCS) culture medium (RPMI 1640 supplemented with 0.4% Trypticase peptone, 0.017 M HEPES, 25 μM hemin, 10% heat-inactivated FCS).” left out
as §2
The four-parameter logistic model is as follows: y=Min+Max−Min/1+(x/IC50)^−Hillslope
The seven-parameter logistic model is as follows: y=(Max_1+{Min−Max_1/1+[(x/IC50_1)^Hillslope_1]})+(Max_2−{Max_2/1+[(x/IC50_2)^Hillslope_2]}) […]

On the set-up of data set [5]: method as in PMID 28645201. To be noted: cited from earlier work.
Data set [6] has as its system proteasome chymotrypsin-like activity. More on the design: method as in PMID 25308265. The settings on record: similar assay platform in a cellular system; read-out: Km, approximate value; cited from earlier work.
Data set [7] relates to T. cruzi proteasome. Nature of the data set: Kinetic-parameter (Km) determination for chymotrypsin-like substrate. The format is biochemical, Trypanosoma cruzi. To be noted: 95% CI = 78.8 to 108.4 μM; 60-min reaction; n = 3; read-out: apparent steady-state Km. The procedure:
Assay linearity and the optimal amount of T. cruzi proteasome for screening was determined by first serially diluting (1 in 2; CMF = 0.5) the proteasome stock solution in proteasome buffer to generate 10 additional concentrations. Next, 4 μl of each of the T. cruzi proteasome solutions was added to 4 μl of the luciferin detection and Proteasome-Glo chymotrypsin-like reagent mixture. Luminescence was read immediately and then every 90 s for 75 min. Data were acquired from 5 technical replicates (n = 5). To calculate the Michaelis constant (Km) and identify the optimal amount of chymotrypsin-like suc-Leu-Leu-Val-Tyr-aminoluciferin substrate for screening, the Proteasome-Glo chymotrypsin-like assay (Promega; catalogue no. G8622) luciferin detection reagent (comprising luciferase enzyme in Proteasome-Glo buffer) was prepared according to the manufacturers’ protocol ([29]). A 1,200 μM solution (600 μM final assay concentration) of the substrate was prepared and subsequently serially diluted (1 in 2; CMF = 0.5) using the luciferin detection reagent to generate 8 additional concentrations. Next, 4 μl of each of the luciferin detection and substrate solution mixtures was added to 4 μl of partially purified T. cruzi proteasome that was diluted 1 in 4 (CMF = 0.25) from the original stock using proteasome buffer. Luminescence was read immediately and then every 90 s for 75 min. […]

Setting [8] is: BacTiter-Glo viability readout, n = 4 (epoxomicin n = 3).

T. cruzi proteasome trypsin-like activity, sequence (V5BGL9 entry or part of it): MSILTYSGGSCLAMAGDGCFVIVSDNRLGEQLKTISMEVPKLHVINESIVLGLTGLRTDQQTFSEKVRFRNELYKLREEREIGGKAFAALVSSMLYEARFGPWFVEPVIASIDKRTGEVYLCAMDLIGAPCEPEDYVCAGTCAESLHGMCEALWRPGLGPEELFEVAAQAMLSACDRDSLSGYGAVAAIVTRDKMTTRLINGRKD
T. cruzi proteasome trypsin-like activity, sequence (V5BCU3 entry or part of it): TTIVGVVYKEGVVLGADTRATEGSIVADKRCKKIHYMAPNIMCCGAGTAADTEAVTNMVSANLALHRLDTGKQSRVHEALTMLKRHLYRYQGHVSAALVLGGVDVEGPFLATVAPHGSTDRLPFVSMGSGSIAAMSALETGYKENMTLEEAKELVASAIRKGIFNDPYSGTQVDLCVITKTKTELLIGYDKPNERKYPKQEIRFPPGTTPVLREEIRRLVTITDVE

For the molecule `CC[C@H](C)[C@H](NC(=O)[C@H]([C@@H](C)CC)N(C)C(C)=O)C(=O)N[C@H](C(=O)N[C@@H](CC(C)C)C(=O)[C@@]1(C)CO1)[C@@H](C)O` [Epoxomicin, epoxomicin], the EC50 in data set [1] is 63.1 nM. Also, in data set [2], the “Cell-free pIC50 ± SD, Trypsin-like” value amounted to 6.10 ± 0.06 M. The “Cell-free pIC50 ± SD, Caspase-like” value in data set [3] was determined as 5.85 ± 0.05 M.

With `CCC[C@@H](C=O)NC(=O)C(CC(C)C)NC(=O)[C@H](CC(C)C)NC(=O)OCc1ccccc1` (stereo partly drawn) [MG115] (Cbz-Leu-[ξL]-[Nva]-aldehyde), the EC50 in data set [1] (setting [8]) is 4370 nM. In addition, the “Cell-free pIC50 ± SD, Trypsin-like” value in data set [2] is reported as 4.87 ± 0.09 M. In data set [3], the “Cell-free pIC50 ± SD, Caspase-like” value came out at 4.91 ± 0.10 M.

As a reminder, the IC30 is the concentration at which the effect reaches the 30% level. Usually IC70 stands for the concentration at which the effect reaches the 70% level. As to `CC(C)C[C@H](NC(=O)[C@H](Cc1ccccc1)NC(=O)c1cnccn1)B(O)O` [Bortezomib, bortezomib], in data set [1] (setting [8]), the EC50 was 240 nM. In data set [4], the “chymotrypsin-like activity dose-response curve shape” value is listed as “biphasic”. Also, the IC30 in data set [4] (concentration approximately equivalent to IC30, used for spiking test plates) was roughly 4 nM. In data set [4] (concentration approximately equivalent to IC70, used for spiking test plates), the IC70 was roughly 0.079 µM. Besides, the “Cell-free pIC50 ± SD, Caspase-like” value in data set [3] was determined as 7.16 ± 0.13 M.

On to oprozomib, for which the “Cellular pEC50 ± SD” value in data set [1] (setting [8]) was 6.53 ± 0.32 M.

On to `O=C(Cn1ccnc1[N+](=O)[O-])NCc1ccccc1` [Benznidazole, benznidazole], for which the “treatment discontinuation rate due to side effects” value in data set [5] is 10%.

On to `CC(C)C[C@@H](C=O)NC(=O)[C@H](CC(C)C)NC(=O)[C@H](CC(C)C)NC(=O)OCc1ccccc1` [MG132] (Cbz-Leu-Leu-Leu-aldehyde), for which the EC50 in data set [1] was 2450 nM. The “Cell-free pIC50 ± SD, Trypsin-like” value in data set [2] was determined as 4.88 ± 0.14 M. The “chymotrypsin-like activity dose-response curve shape” value in data set [4] is given as “biphasic”. The “Cell-free pIC50 ± SD, Caspase-like” value in data set [3] worked out at 6.01 ± 0.09 M.

With `CC(C)C[C@H](NC(=O)CNC(=O)c1cc(Cl)ccc1Cl)B(O)O` [Ixazomib, ixazomib], the EC50 in data set [1] (setting [8]) is 708 nM. In addition, the “Cell-free pIC50 ± SD, Trypsin-like” value in data set [2] is 5.51 ± 0.07 M. In data set [4], the “chymotrypsin-like activity dose-response curve shape” value is recorded as “biphasic”. The “Cell-free pIC50 ± SD, Caspase-like” value in data set [3] is recorded as 7.49 ± 0.17 M.

In general, Km refers to the concentration of substrate that gives half-maximal velocity. With “succinyl-Leu-Leu-Val-Tyr-aminoluciferin (Suc-LLVY-aminoluciferin; SMILES CC(C)C[C@H](NC(=O)CCC(=O)O)C(=O)N[C@@H](CC(C)C)C(=O)N[C@H](C(=O)N[C@@H](Cc1ccc(O)cc1)C(=O)Nc1ccc2nc(C3=N[C@@H](C(=O)O)CS3)sc2c1)C(C)C) [suc-Leu-Leu-Val-Tyr-aminoluciferin, luminogenic chymotrypsin-like peptide substrate]”, the figures for the Km in data set [6] and in data set [7] were roughly 60 µM and 93.5 µM, respectively.
